The source of these data is US20080227710A1, “Use of Conjugates of Doxorubicin with Lactosaminated Albumin” (priority 2005, published 2008).

This data set is described as follows: DOXO concentrations in HCCs, heart and intestine of rats with DENA-induced HCCs. The class given is in vivo, rat. Conditions: 4 h after i.v. injection, DOXO measured as free drug, mean ± standard error. Here is the method: HCCs were induced by diethyInitrosamine (DENA) given in the drinking water (100 mg/l) for 8 weeks. […] Compounds were injected in the dorsal vein of penis, in a volume of 10 μl/10 g body weight, under isoflurane anaesthesia. For each compound four rats were used. Four hours after the injection the animals were killed under isoflurane anaesthesia. Organs were rapidly removed and frozen and neoplastic nodules were accurately dissected from the surrounding liver. A part of each tumor nodule was frozen; the other part was fixed in 10% formalin and processed for histology. Samples of frozen organs and nodules were used for radioactivity count and determination of DOXO levels. DOXO was measured according to Bots A M, et al. (Analysis of adriamycin . . . J Chromatogr 1983; 272: 421-427), with modifications (Di Stefano G, et al. Doxorubicin coupled to lactosaminated . . . Dig Liver Dis 2003; 35: 428-433).

On to `COc1cccc2c1C(=O)c1c(O)c3c(c(O)c1C2=O)C[C@@](O)(C(=O)CO)C[C@@H]3O[C@H]1C[C@H](N)[C@H](O)[C@H](C)O1` [DOXO, doxorubicin], for which the “DOXO concentration, nmoles DOXO/g, Heart” value (heart) was 4.7 ± 0.3 nmoles DOXO/g. Moreover, for the setting “intestine”, the “DOXO concentration, nmoles DOXO/g, Intestine” value worked out at 4.2 ± 0.6 nmoles DOXO/g. In addition, the “DOXO concentration, nmoles DOXO/g, MD HCCs” value (moderately differentiated HCCs) was 3.1 ± 0.4 nmoles DOXO/g. Also, where the note is “poorly differentiated HCCs”, the “DOXO concentration, nmoles DOXO/g, PD HCCs” value is listed as 3.6 ± 0.4 nmoles DOXO/g. Where the note is “well differentiated HCCs”, the “DOXO concentration, nmoles DOXO/g, WD HCCs” value came out at 3.4 ± 0.6 nmoles DOXO/g.
